# Measurements: patent publication US9827212B2, “Compositions and methods for treating asthma and other lung diseases” (THE TRUSTEES OF THE UNIVERSITY OF PENNSYLVANIA, priority 2010, dated 2017)
# Read-outs that look alike come from different tables or passages of the source.
# Columns and labels:
# RANTES = RANTES secretion from human precision cut lung slices (PCLS); type: cell-based; settings: for inhibition of RANTES secretion from PCLS: TSA 10 μM or budesonide 50 nM 2 h prior
# Protocol: (§1) FIG. 11. […] Secretion of IL-6 and RANTES was analyzed as described under materials and methods. Values shown are mean+/− s.d. from three samples.
# (§2) The levels of cytokine secreted into the supernatants of PCLS and bronchoalveolar lavage (BAL) fluid samples were determined by ELISA according to standard protocols as previously described (Banerjee et al. 2008). The cytokine amounts were calculated from the standard curves in each plate. The limits of detection were 5 pg/ml for IL-4 and IL-6 and RANTES standards. Recombinant mouse IL-4 and IL-6 and human RANTES were used as controls.
# (§3) Human lung slice preparation. Human PCLS were prepared as previously described (Cooper et al. 2008). Briefly, healthy whole human lungs were received from the NDRI, and the smallest lobe was dissected out and its main bronchus identified. The lobe was inflated using a 2% (wt/vol) low melting point agarose solution. Once the agarose had set, the lobe was sectioned, and cores of 8-mm diameter were made. The cores that contained a small airway by visual inspection were sliced at a thickness of 250 μm (Krumdieck Tissue Slicer; model no. MD4000; Alabama Research and Development) and collected in wells containing supplemented Ham's F-12 medium. Suitable airways (≦1-mm diameter) on slices were selected on the basis of the following criteria: presence of a full smooth muscle wall (i.e., cut perpendicular to direction of airway); presence of beating cilia to eliminate blood vessels; and unshared muscle walls at airway branch points to eliminate possible counteracting contractile forces. […] Adjacent slices containing contiguous segments of the same airway were paired to act as control to the variable tested and incubated at 37° C. on a rotating platform in a humidified air-CO2 (95-5%) incubator. Sections were placed in fresh media every 2-3 h during the remainder of day 1 and all of day 2 to rid the slice and media of agarose and endogenous substances released that could variably confound the production of inflammatory mediators and/or alter airway tone.
# (§4) Three airways from each donor were used per condition; n values indicate the number of donors. Data are expressed as means± SEM. Statistical difference was shown by using a nonpaired t test.
# HDAC = settings: TSA 0.6 mg/kg i.p.
# Protocol: HDAC activity was measured as described previously (Trivedi et al. 2007). […] 50 μg of total extract was incubated with HDAC assay substrate and incubated at 30° C. for 60 min. After the addition of diluted activator reagent, samples were incubated at room temperature for 15 min, and readings were taken by fluorescent microplate reader at an excitation of 360 nm and emission of 450 nm. A standard curve was performed according to the manufacturer's protocol.
# IL-6 [1] = assay: IL-6 secretion from human precision cut lung slices (PCLS); type: cell-based; settings: for inhibition of IL-6 secretion from PCLS / inhibition at 0.05 µM: TSA 10 μM or budesonide 50 nM 2 h prior; for inhibition at 0.05 µM: Homo sapiens
# Protocol: as §1, §2, §3, §4
# [2] = test system: naïve mice challenged with methacholine; assay: Invasive lung function (FlexiVent), methacholine challenge, naïve mice; type: in vivo; settings: dexamethasone 2.5 mg/kg i.p.
# Protocol: (§5) Lung resistance, compliance, elastance, tissue damping, tissue elastance, and airway resistance were recorded using the FlexiVent system (SCIREQ Scientific Respiratory Equipment Inc). The FlexiVent System Overview is shown in FIG. 1B: FlexiVent is a modular, multi-functional device that performs both mechanical ventilation and detailed measurements of respiratory mechanics in subjects.
# (§6) The mice were anesthetized by an I.P. injection of a Ketamine (100 mg/kg) and Xylazine (20 mg/kg) mixture. After anesthesia, a half centimeter incision was made from the rostal to caudal direction; the flap of skin was retracted and the connective tissue was dissected away, and the trachea was exposed. The trachea was then cannulated between the second and third cartilage rings with a blunt-end stub adapter. The cannula was secured with suture. The mice were next connected to the Flexivent system. All spontaneous respirations were stopped with an intramuscular injection of Pancuronium Bromide (3 mg/kg) and the mice were then mechanically ventilated at respiratory rate of 140 beats/per minute with 0.25 ml of tidal volume. The Flexivent system then briefly interrupted the mechanical ventilation to apply a test signal, or perturbation to measure the respiratory mechanics. The respiratory mechanics were then calculated from the data collected while the perturbation was applied. […] At the end of testing the mice were disconnected and processed for multiple organ, blood, and fluid removal. The mice were first exsanguinated through the optical artery. Then bronchoalveolar lavage was performed through the tracheal canula. Finally, the peritoneal and the thoracic cavity were opened, and the lungs were removed for protein and histological processing.
# [3] = test system: inflammatory cells in bronchoalveolar lavage (BAL) fluid; assay: BAL cell count and differential; type: in vivo, mice
# Protocol: (§7) Mice were sensitized by intraperitoneal (I.P.) injections of 20 μg allergen, a protein extract of the ubiquitous, airborn fungus, Aspergillus fumigatus (AF), (Bayer Pharmaceuticals), in 100 μl PBS solution containing 2 mg of alum (Imject Alum, Pierce) on days 0 and 14 and challenged on days 25, 26, and 27 with 30 μl of Af extract in PBS (25 μg) intranasally (i.n.) (FIG. 1).
# After functional measurements were completed, lungs were lavaged with 1-ml aliquots of sterile saline through the tracheal cannula. After centrifuging (500 g for 10 min at 4° C.) the cell pellet was resuspended in RPMI. Differential cell counts were made from cytospin preparations as described (Elwood et al. 1991). Cells were identified as macrophages, eosinophils, neutrophils, and lymphocytes by standard morphology and at least 300 cells were counted under ×400 magnification. The percentage and absolute numbers of each cell type were then calculated. The supernatants were harvested and stored at −20° C. for further analysis.
# IL-6 [4] = assay: IL-6 level in BAL fluid (ELISA); type: in vivo, mice
# Protocol: as §7, §2
# IL-4 = IL-4 level in BAL fluid (ELISA); type: in vivo, mice
# Protocol: as §7, §2
# [5] = test system: mice sensitized and challenged with Aspergillus fumigatus (AF); assay: Invasive lung function (FlexiVent), methacholine challenge, Aspergillus fumigatus sensitized and challenged mice; type: in vivo; settings: TSA 0.6 mg/kg i.p., dexamethasone 2.5 mg/kg i.p.
# Protocol: as §7, §5, §6
# [6] = mice sensitized and challenged with Aspergillus
# [7] = TNFα (10 ng/mL) and IFNγ (10,000 IU/mL) stimulated
# [8] = unsensitized and unchallenged (naïve) mice
structure (smiles),measurement,setting,value
"CC(/C=C/C(=O)NO)=C\[C@@H](C)C(=O)c1ccc(N(C)C)cc1 [TSA, Trichostatin A]",inhibition of RANTES secretion from PCLS,"RANTES; TNFα (10 ng/mL) and IFNγ (10,000 IU/mL) induced",55.1%+/−7.5%
same,inhibition of RANTES secretion from PCLS,RANTES; TNFα (10 ng/mL) induced,50%+/−23%
same,basal RANTES secretion from PCLS,"RANTES; unstimulated, TSA 10 μM",did not induce basal RANTES secretion
same,HDAC activity in lung tissue,HDAC; [6],effectively inhibited HDAC activity
same,HDAC activity in lung tissue,HDAC; naïve mice,effectively inhibited HDAC activity
same,inhibition of IL-6 secretion from PCLS,IL-6 [1]; [7],18.8%+/−6.8%
same,inhibition of IL-6 secretion from PCLS,IL-6 [1]; TNFα (10 ng/mL) stimulated,30.2%+/−12.5%
same,basal IL-6 secretion from PCLS,"IL-6 [1]; unstimulated, TSA 10 μM",little effect on basal IL-6 secretion
same,"dynamic compliance, maximum inhibition by methacholine",[2]; TSA 0.6 mg/kg i.p.,0.032 mL/cmH2O
same,half maximal inhibitory concentration of methacholine on dynamic compliance,[2]; TSA 0.6 mg/kg i.p.,2.5 mg/mL
same,BAL eosinophil counts,"[3]; Aspergillus challenged mice, TSA 0.6 mg/kg i.p., dexamethasone 2.5 mg/kg i.p.",no effect
same,total cell counts in BAL,"[3]; Aspergillus sensitized and challenged mice, TSA 0.6 mg/kg i.p., dexamethasone 2.5 mg/kg i.p.",no effect
same,percentages of inflammatory cells in the BAL,[3]; after allergen sensitization and challenge,little effect
same,total cell counts in BAL,"[3]; naïve mice, TSA 0.6 mg/kg i.p., dexamethasone 2.5 mg/kg i.p.",no significant difference in cell counts
same,"BAL macrophages, neutrophils, or lymphocytes",[3]; untreated mice or Aspergillus sensitized and challenged mice,no significant differences
same,IL-6 in BAL,IL-6 [4]; [6],little effect on cytokine secretion
same,IL-6 in BAL,IL-6 [4]; [8],did not increase
same,IL-4 in BAL,IL-4; [6],little effect on cytokine secretion
same,IL-4 in BAL,IL-4; [8],did not increase
same,"dynamic compliance, maximum inhibition by methacholine",[5],0.008 mL/cmH2O
same,half maximal effective concentration of methacholine (airway resistance),[5],20 mg/mL
same,half maximal inhibitory concentration of methacholine on dynamic compliance,[5],5 mg/mL
CCCC1O[C@@H]2C[C@H]3[C@@H]4CCC5=CC(=O)C=C[C@]5(C)[C@H]4[C@@H](O)C[C@]3(C)[C@]2(C(=O)CO)O1 (some centres unmarked) [budesonide],inhibition at 0.05 µM,RANTES; Homo sapiens,69%
same,inhibition at 0.05 µM,IL-6 [1]; [7],52.7%
same,inhibition at 0.05 µM,IL-6 [1]; TNFα (10 ng/mL) stimulated,44.4%
C[C@@H]1C[C@H]2[C@@H]3CCC4=CC(=O)C=C[C@]4(C)[C@@]3(F)[C@@H](O)C[C@]2(C)[C@@]1(O)C(=O)CO [dexamethasone],Emax of airway (lung) resistance in response to methacholine,[2]; TSA 0.6 mg/kg i.p. in DMSO,2.3 cmH2O/mL
same,"dynamic compliance, maximum inhibition by methacholine",[2]; TSA 0.6 mg/kg i.p.,0.010 mL/cmH2O
same,Emax of airway resistance in response to methacholine,[5],6 cmH2O/mL
same,"dynamic compliance, maximum inhibition by methacholine",[5],0.005 mL/cmH2O
